A value given as a limit tells only on which side of the number the result lay.

Here are results for three compounds from PMC4879371, “Antitrypanosomal Activities and Mechanisms of Action of Novel Tetracyclic Iridoids from Morinda lucida Benth” (Antimicrobial Agents and Chemotherapy, 2016).

One data set concerns HF-19 (lung fibroblast). Briefly: MTT cytotoxicity assay, HF-19. In kind it is cell-based, human. The conditions noted are these: IC50 HF-19 / IC50 trypanosomes. Here is the method: (§1) The cytotoxicity of the compounds to mammalian cells were determined using four human normal cell lines, namely, NB1RGB (skin fibroblast) and HF-19 (lung fibroblast) obtained from the RIKEN Bio Resource Center Cell Bank (Japan) and Chang Liver and Hs888Lu (lung) obtained from the European Collection of Authenticated Cell Cultures (ECACC). NB1RGB and HF-19 were maintained in minimum essential medium-α (MEM-α). Chang Liver and Hs888Lu were grown in Eagle's minimum essential medium (EMEM) and RPMI 1640, respectively. All of these media were supplemented with 10% fetal bovine serum (FBS) and 1% penicillin-streptomycin and were then incubated at 37°C under 5% CO2 in fully humidified conditions.
(§2) Cytotoxicity was determined using a 3-(4,5-dimethylthiazol-2-yl)-2,5-diphenyltetrazolium bromide (MTT) assay. The cells were treated with molucidin, ML-2-3, or ML-F52 at concentrations of ≤50 μM for 48 h. Cells were plated at a density of 0.5 × 10^4 cells/well into 96-well plates. After 24 h of incubation, cells were treated with various concentrations of each of the purified compounds for 48 h. Then, MTT solution was added to each well, and the cells were incubated for another 4 h. The precipitated MTT-formazan product was dissolved in 0.04 N HCl-isopropanol, and the amount of formazan was measured at a wavelength of 595 nm by a microplate reader (Immuno Mini NJ-2300; Nihon InterMed, Tokyo, Japan). Cytotoxicity was calculated as the percentage of live cells relative to the control culture. The selectivity index (SI) was expressed as the ratio of the IC50 obtained for mammalian cells and the IC50 for trypanosomes.

Data set [1] can be described thus: MTT cytotoxicity assay, HF-19. In kind it is cell-based, human. The conditions noted are these: human, HF-19 lung fibroblast cells; HF-19 normal lung fibroblast, 48 h. Here is the method: as §1, §2
Data set [2] has as its system four human normal cell lines (NB1RGB, HF-19, Chang Liver, Hs888Lu). Briefly: MTT cytotoxicity assay, all cell lines tested. Format: cell-based. Here is the method: as §1, §2
The subject of data set [3] is Trypanosoma brucei parasites. Put plainly: FACS cell cycle assay, time course. Format: cell-based. Here is the method: Seeding and incubation of parasites with compounds were done under the same conditions as those for the alamarBlue assay as described above without addition of the alarmarBlue reagent. In this case, after 24 h of incubation, Guava reagents for Nexin and cell cycle assays were added, and each assay was performed using the Millipore Guava easyCyte 5HT fluorescence-activated cell sorter (FACS) machine according to the manufacturer's instruction. The Nexin assay and subsequent FACS analysis allowed for detection of markers of apoptosis induction by the plant materials. Similarly, the cell cycle assay and subsequent FACS analysis allowed for detection of markers of cell cycle alteration by the plant materials.
To investigate the sequence in which the events (apoptosis induction, PFR-2 suppression, and cell cycle alteration) involved in mechanisms of action occur, we examined the time course for the three events using ML-2-3-treated parasites. Trypanosoma brucei parasites were incubated for 0, 0.5, 1.5, 3, 6, and 24 h with 15 μM ML-2-3 and were then subjected to both Nexin assay and Western blot analyses using the PFR-2 antibody. We further investigated the time course of cell cycle alteration using ML-2-3-treated parasites at similar concentrations and incubation periods.

In data set [4] the test system is GUTat 3.1 strain of the bloodstream form of T. brucei brucei. Put plainly: alamarBlue in vitro viability test for trypanosome parasites. Format: cell-based. The conditions noted are these: Trypanosoma brucei, 48 h of incubation, read-out: IC50, antitrypanosomal activity. Here is the method: The GUTat 3.1 strain of the bloodstream form of T. brucei brucei parasites was used in this study. Parasites were cultured in vitro according to the conditions established previously ([36]). Parasites were used when they reached a confluent concentration of 1 × 10^6 parasites/ml. Estimation of parasitemia was done with the Neubauer counting chamber. Parasites were diluted to a concentration of 3 × 10^5 parasites/ml with HM1-9 medium and were used for the various experiments.
The alamarBlue assay (Life Technologies, USA) was carried out on treated or untreated trypanosome parasites to ascertain their viability. The assay was performed in a 96-well plate following the manufacturer's instructions with modification. Briefly, 1.5 × 10^4 parasites were seeded with varied concentrations of plant material (extracts, fractions, or compounds) ranging from 0.78 μg/ml to […]. Final concentrations of EtOH and dimethyl sulfoxide (DMSO) were kept at <1% and 0.1%, respectively. After incubation of parasites with or without plant extracts or compounds for 24 h at 37°C in 5% CO2, 10% alamarBlue dye was added, and the parasites were incubated another 24 h in darkness. After a total of 48 h, the plate was read for absorbance at 540 nm using the Tecan Sunrise Wako spectrophotometer. The trend curve was drawn to obtain a 50% inhibitory concentration (IC50) of each plant material (extracts, fractions, and compounds).

The test system of a further data set is Chang Liver. Put plainly: MTT cytotoxicity assay, Chang Liver. In kind it is cell-based, human. The conditions noted are these: IC50 Chang liver / IC50 trypanosomes. Here is the method:
as §1, §2

Data set [5] in a line: MTT cytotoxicity assay, Chang Liver. The conditions noted are these: human, Chang Liver cells; Chang liver normal liver, 48 h. Format: cell-based, human. Here is the method: as §1, §2
A further data set deals with Plasmodium yoelii. Briefly: Preliminary in vivo studies against Plasmodium yoelii. The conditions noted are these: BALB/c mice, unpublished data.

Consider `COc1cc(/C=C2/C(=O)O[C@]34C=C[C@@H]5C(C(=O)O)=CO[C@H](O[C@@H]23)[C@@H]54)ccc1O` [ML-2-3], for which the “SI (selectivity index)” value in the data set on HF-19 (lung fibroblast) and with Chang Liver was over 13.33 each time. The IC50 at 48 h in data set [1] and in data set [5] was over 50 µM each time. For the same compound, the “selectivity index (SI) for all of the cell lines” value in data set [2] is listed as over 10. In data set [2] (≤50 μM, 48 h), the “cytotoxicity among all cell lines” value is reported as “did not show any cytotoxicity”. For the same compound, in data set [3] (15 μM ML-2-3), the “time of exposure to significant changes in cell cycle” value is on record as at most 0.5 h. In data set [3] (15 μM, 0.5 h to 24 h), the S-phase cells result is on record as “stayed stable”. The same compound returned a G2/M-phase cells in data set [3] (15 μM, within 0.5 h of exposure, decreased from 31%) of 9%. Further, the IC50 in data set [4] came out at 3.75 µM.

As for `CCOC(=O)C1=CO[C@@H]2O[C@H]3/C(=C\c4ccc(O)c(OC)c4)C(=O)O[C@]34C=C[C@H]1[C@H]24` [ML-F52], the entries for the “SI (selectivity index)” value with HF-19 (lung fibroblast) and with Chang Liver were 25.44 and 42.16, respectively. The IC50 at 48 h in data set [1] was 10.9 µM; in data set [5] it was 18.1 µM. In addition, the “selectivity index (SI) for all of the cell lines” value in data set [2] is on record as over 10. For the same compound, the IC50 in data set [4] worked out at 0.43 µM.

As to `COC(=O)C1=CO[C@@H]2O[C@H]3/C(=C\c4ccc(O)c(OC)c4)C(=O)O[C@]34C=C[C@H]1[C@H]24` [molucidin], the “SI (selectivity index)” value in the data set with HF-19 (lung fibroblast) is listed as 11.21; with Chang Liver it was 7.35. Further, the IC50 at 48 h was found to be 14.2 µM in data set [1] and 9.34 µM in data set [5]. Moreover, the “efficacy against Plasmodium yoelii in vivo” value in the data set on Plasmodium yoelii is on record as “significant efficacy”. Further, in data set [4], the IC50 was 1.27 µM.
